Source: patent US10723727B2, “Tubulysin analogs and methods for their preparation” (priority 2016, dated 2020)

How the values were obtained:
[1] = tested on: N87 (gastric cancer) cells; experiment: In vitro cell assay (MTS cell viability), N87; format: cell-based; details: 96 h, free compounds; 96 hours after treatment
In short: (§1)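 Cells seeded 24 h before treatment with antibody-drug conjugates or free compounds, 3-fold serial dilutions at 10 concentrations in duplicate. Viability read by MTS assay 96 h after treatment as % of untreated control; IC50 from four-parameter logistic fit.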

HT-29 cells = experiment: In vitro cell assay (MTS cell viability), HT-29 (target non-expressing); format: cell-based; details: Homo sapiens, HT-29, 96 h, free compounds; 96 hours after treatment; read-out: HT29 IC50
Experimental: In Vitro Cell Assay Procedure
Target expressing (BT474 (breast cancer), N87 (gastric cancer), HCC1954 (breast cancer), MDA-MB-361-DYT2 (breast cancer)) or non-expressing (HT-29) cells were seeded in 96-well cell culture plates for 24 hours before treatment. Cells were treated with 3-fold serially diluted antibody-drug conjugates or free compounds (i. e. no antibody conjugated to the drug) in duplicate at 10 concentrations. Cell viability was determined by CellTiter 96® AQueous One Solution Cell Proliferation MTS Assay (Promega, Madison Wis.) 96 hours after treatment. Relative cell viability was determined as percentage of untreated control. IC50 values were calculated using a four parameter logistic model #203 with XLfit v4. 2 (IDBS, Guildford, Surry, UK).

[2] = tested on: MDA-MB-361-DYT2 (breast cancer) cells; experiment: In vitro cell assay (MTS cell viability), MDA-MB-361-DYT2; format: cell-based; details: 96 h, free compounds; 96 hours after treatment
In short: as §1

[3] = molecular target: T1, tubulin/RB3-stathmin-like-domain (RB3-SLD-tdm) complex (Sus scrofa, UniProt P02550+P02554); experiment: Tubulin Peptide-Binding Site Competition Assay (fluorescence polarization); parameters: species or system Porcine; details: FP competition with BODIPY-labeled vinca peptide probe; read after five hours at 22° C.; read-out: Tubulin Peptide-Binding Site Competition Assay IC50
T1 construct: purchased Cytoskeleton, Inc. T240; host or cells: RB3-SLD was made in house in E. coli
In short: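 The BODIPY vinca-peptide probe was premixed with test compound and then added to porcine tubulin/RB3-SLD, at final concentrations of 3 nM probe, 6 nM tubulin and 100 nM RB3-SLD. The buffer was PIPES pH 7.0 with Tween 20, MgCl2 and EGTA, and 11-point dilutions were run in duplicate. IC50 was fitted from the fluorescence polarization decrease and converted to Ki.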

## CC[C@H](C)[C@H](NC(=O)[C@@]1(C)CCCN1C)C(=O)N(C)[C@H](C[C@@H](OC(C)=O)c1nc(C(=O)NCC2(c3ccccc3)CC2)cs1)C(C)C [#B53, 1,2-dimethyl-D-prolyl-N-[(1R,3R)-1-(acetyloxy)-4-methyl-1-(4-{[(1-phenylcyclopropyl)methyl]carbamoyl}-1,3-thiazol-2-yl}pentan-3-yl]-N-methyl-L-isoleucinamide]
[1]
  IC50: 52.4 nM
HT-29 cells
  IC50: 45.1 nM
[2]
  IC50: 34 nM
[3]
  IC50: 12.9 nM

## CCNC(=O)O[C@H](C[C@H](C(C)C)N(C)C(=O)[C@@H](NC(=O)C12CCC(CC1)N2C)[C@@H](C)CC)c1nc(C(=O)N[C@@H](Cc2ccc(N)cc2)C[C@H](C)C(=O)O)cs1 [#B26, (2S,4R)-5-(4-aminophenyl)-4-{[(2-[(6R,8R,11S)-11-[(2S)-butan-2-yl]-9-methyl-13-(7-methyl-7-azabicyclo[2.2.1]hept-1-yl)-4,10,13-trioxo-8-(propan-2-yl)-5-oxa-3,9,12-triazatridecan-6-yl]-1,3-thiazol-4-yl}carbonyl)amino]-2-methylpentanoic acid]
[1]
  IC50: 7.78 nM
HT-29 cells
  IC50: 8.83 nM
[2]
  IC50: 8.27 nM
[3]
  IC50: < 0.5 nM

## CC[C@H](C)[C@H](NC(=O)[C@@]1(C)CCCN1C)C(=O)N(C)[C@H](C[C@@H](OC(C)=O)c1nc(C(=O)N[C@H](COCc2ccccc2)Cc2ccccc2)cs1)C(C)C [#B61, 1,2-dimethyl-D-prolyl-N-[(1R,3R)-1-(acetyloxy)-1-(4-{[(2S)-1-(benzyloxy)-3-phenylpropan-2-yl]carbamoyl}-1,3-thiazol-2-yl)-4-methylpentan-3-yl]-N-methyl-L-isoleucinamide]
[1]
  IC50: 38.5 nM
HT-29 cells
  IC50: 14.7 nM
[2]
  IC50: 23.4 nM
[3]
  IC50: 19.1 nM

## CC[C@H](C)[C@H](NC(=O)[C@@]1(C)CCCN1C)C(=O)N(C)[C@H](C[C@@H](OC(C)=O)c1nc(C(=O)NCCc2cscn2)cs1)C(C)C [#B76, 1,2-dimethyl-D-prolyl-N-[(1R,3R)-1-(acetyloxy)-4-methyl-1-(4-{[2-(1,3-thiazol-4-yl)ethyl]carbamoyl}-1,3-thiazol-2-yl)pentan-3-yl]-N-methyl-L-isoleucinamide]
[1]
  IC50: 87.7 nM
HT-29 cells
  IC50: 37.4 nM
[2]
  IC50: 42 nM
[3]
  IC50: 19.9 nM

## CC[C@H](C)[C@H](NC(=O)[C@@]1(C)CCCN1C)C(=O)N(C)[C@H](C[C@@H](OC(=O)N(C)C)c1nc(C(=O)N[C@@H](Cc2ccc(N)cc2)C[C@H](C)C(=O)O)cs1)C(C)C [#B31, 1,2-dimethyl-D-prolyl-N-{(1R,3R)-1-(4-{[(2R,4S)-1-(4-aminophenyl)-4-carboxypentan-2-yl]carbamoyl}-1,3-thiazol-2-yl)-1-[(dimethylcarbamoyl)oxy]-4-methylpentan-3-yl}-N-methyl-L-isoleucinamide]
[1]
  IC50: 3.83 nM
HT-29 cells
  IC50: 3.86 nM
[2]
  IC50: 4.04 nM
[3]
  IC50: 3.1 nM

## CC[C@H](C)[C@H](NC(=O)[C@@]1(C)CCCN1C)C(=O)N(C)[C@H](C[C@@H](OC(C)=O)c1nc(C(=O)N[C@@H](Cc2ccccc2)[C@@H](O)C(=O)OC)cs1)C(C)C [#B51, 1,2-dimethyl-D-prolyl-N-[(1R,3R)-1-(acetyloxy)-1-(4-{[(2S,3R)-3-hydroxy-4-methoxy-4-oxo-1-phenylbutan-2-yl]carbamoyl}-1,3-thiazol-2-yl)-4-methylpentan-3-yl]-N-methyl-L-isoleucinamide]
[1]
  IC50: 7.78 nM
HT-29 cells
  IC50: 2.2 nM
[2]
  IC50: 2.94 nM
[3]
  IC50: 11.7 nM

## CC[C@H](C)[C@H](NC(=O)C12CC(CCN1C)C2)C(=O)N(C)[C@H](C[C@@H](OC(C)=O)c1nc(C(=O)N[C@@H](Cc2ccccc2)C[C@H](C)C(=O)OC)cs1)C(C)C [#B14, methyl (2S,4R)-4-[({2-[(1R,3R)-1-(acetyloxy)-4-methyl-3-(methyl{N-[(2-methyl-2-azabicyclo[3.1.1]hept-1-yl)carbonyl]-L-isoleucyl}amino)pentyl]-1,3-thiazol-4-yl}carbonyl)amino]-2-methyl-5-phenylpentanoate]
[1]
  IC50: 0.337 nM
HT-29 cells
  IC50: 0.063 nM
[2]
  IC50: 0.017 nM
[3]
  IC50: 11.5 nM

## CCNC(=O)O[C@H](C[C@H](C(C)C)N(C)C(=O)[C@@H](NC(=O)[C@@]1(C)CCCN1C)[C@@H](C)CC)c1nc(C(=O)N[C@@H](Cc2ccc(N)cc2)C[C@H](C)C(=O)O)cs1 [#B21, 1,2-dimethyl-D-prolyl-N-{(1R,3R)-1-(4-{[(2R,4S)-1-(4-aminophenyl)-4-carboxypentan-2-yl]carbamoyl}-1,3-thiazol-2-yl)-1-[(ethylcarbamoyl)oxy]-4-methylpentan-3-yl}-N-methyl-L-isoleucinamide]
[1]
  IC50: 1.87 nM
HT-29 cells
  IC50: 1.62 nM
[2]
  IC50: 1.93 nM
[3]
  IC50: 1.9 nM

## CC[C@H](C)[C@H](NC(=O)[C@@]1(C)CCCN1C)C(=O)N(C)[C@H](C[C@@H](O)c1nc(C(=O)N[C@@H](Cc2ccc(N)cc2)C[C@H](C)C(=O)O)cs1)C(C)C [#B32, 1,2-dimethyl-D-prolyl-N-[(1R,3R)-1-(4-{[(2R,4S)-1-(4-aminophenyl)-4-carboxypentan-2-yl]carbamoyl}-1,3-thiazol-2-yl)-1-hydroxy-4-methylpentan-3-yl]-N-methyl-L-isoleucinamide]
[1]
  IC50: > 100 nM
HT-29 cells
  IC50: > 100 nM
[2]
  IC50: > 100 nM
[3]
  IC50: 12.3 nM

## CC[C@H](C)[C@H](NC(=O)C12CC(CN1C)C2)C(=O)N(C)[C@H](C[C@@H](OC(C)=O)c1nc(C(=O)N[C@@H](Cc2ccccc2)C[C@H](C)C(=O)OC)cs1)C(C)C [#B17, methyl (2S,4R)-4-[({2-[(1R,3R)-1-(acetyloxy)-4-methyl-3-(methyl{N-[(2-methyl-2-azabicyclo[2.1.1]hex-1-yl)carbonyl]-L-isoleucyl}amino)pentyl]-1,3-thiazol-4-yl}carbonyl)amino]-2-methyl-5-phenylpentanoate]
[1]
  IC50: 0.386 nM
HT-29 cells
  IC50: 0.037 nM
[2]
  IC50: 0.04 nM
[3]
  IC50: 19.2 nM

## CC[C@H](C)[C@H](NC(=O)[C@@]1(C)CCCN1C)C(=O)N(C)[C@H](C[C@@H](OC(C)=O)c1nc(C(=O)N[C@@H](Cc2ccc(N)cc2)C[C@H](C)C(=O)O)cs1)C(C)C [#B9, 1,2-dimethyl-D-prolyl-N-[(1R,3R)-1-(acetyloxy)-1-(4-{[(2R,4S)-1-(4-aminophenyl)-4-carboxypentan-2-yl]carbamoyl}-1,3-thiazol-2-yl)-4-methylpentan-3-yl]-N-methyl-L-isoleucinamide]
[1]
  IC50: 1.07 nM
HT-29 cells
  IC50: 0.642 nM
[2]
  IC50: 0.765 nM
[3]
  IC50: 2.5 nM

## CC[C@H](C)[C@H](NC(=O)[C@@]1(C)CCCN1C)C(=O)N(C)[C@H](C[C@@H](OC(C)=O)c1nc(C(=O)N[C@@H](Cc2ccccc2)C[C@H](C)C(=O)OC)cs1)C(C)C [#B5, 1,2-dimethyl-D-prolyl-N-[(1R,3R)-1-(acetyloxy)-1-(4-{[(2R,4S)-5-methoxy-4-methyl-5-oxo-1-phenylpentan-2-yl]carbamoyl}-1,3-thiazol-2-yl)-4-methylpentan-3-yl]-N-methyl-L-isoleucinamide]
[1]
  IC50: 0.763 nM
HT-29 cells
  IC50: 1.11 nM
[2]
  IC50: 0.361 nM
[3]
  IC50: 22.4 nM

## CC[C@H](C)[C@H](NC(=O)[C@@]1(C)CCCN1C)C(=O)N(C)[C@H](C[C@@H](OC(C)=O)c1nc(C(=O)NC(CO)Cc2ccccc2)cs1)C(C)C (stereo partly drawn) [#B50, 1,2-dimethyl-D-prolyl-N-[(1R,3R)-1-(acetyloxy)-1-{4-[(1-hydroxy-3-phenylpropan-2-yl)carbamoyl]-1,3-thiazol-2-yl}-4-methylpentan-3-yl]-N-methyl-L-isoleucinamide]
[1]
  IC50: 28.1 nM
HT-29 cells
  IC50: 8.84 nM
[2]
  IC50: 12.1 nM
[3]
  IC50: 8.6 nM
